Results published in patent US12161722B2, “Bifunctional heterocyclic compound having BTK degradation function via ubiquitin proteasome pathway, and use thereof” (KOREA RESEARCH INSTITUTE OF CHEMICAL TECHNOLOGY, priority 2021, dated 2024).

Experiments:
C481S BTK protein = target: T1, C481S BTK protein (Homo sapiens, UniProt Q06187, C481S); assay: BTK protein degradation assay (Western blotting), C481S BTK; format: cell-based; conditions: concentration range accounting for 50% degradation of C481S BTK protein, 293T BTK MUT (C481S) cells
T1 construct: expressed in transfected cells; host or cells: 293T BTK MUT (C481S) cells
T1 sequence (Q06187 whole entry C481S): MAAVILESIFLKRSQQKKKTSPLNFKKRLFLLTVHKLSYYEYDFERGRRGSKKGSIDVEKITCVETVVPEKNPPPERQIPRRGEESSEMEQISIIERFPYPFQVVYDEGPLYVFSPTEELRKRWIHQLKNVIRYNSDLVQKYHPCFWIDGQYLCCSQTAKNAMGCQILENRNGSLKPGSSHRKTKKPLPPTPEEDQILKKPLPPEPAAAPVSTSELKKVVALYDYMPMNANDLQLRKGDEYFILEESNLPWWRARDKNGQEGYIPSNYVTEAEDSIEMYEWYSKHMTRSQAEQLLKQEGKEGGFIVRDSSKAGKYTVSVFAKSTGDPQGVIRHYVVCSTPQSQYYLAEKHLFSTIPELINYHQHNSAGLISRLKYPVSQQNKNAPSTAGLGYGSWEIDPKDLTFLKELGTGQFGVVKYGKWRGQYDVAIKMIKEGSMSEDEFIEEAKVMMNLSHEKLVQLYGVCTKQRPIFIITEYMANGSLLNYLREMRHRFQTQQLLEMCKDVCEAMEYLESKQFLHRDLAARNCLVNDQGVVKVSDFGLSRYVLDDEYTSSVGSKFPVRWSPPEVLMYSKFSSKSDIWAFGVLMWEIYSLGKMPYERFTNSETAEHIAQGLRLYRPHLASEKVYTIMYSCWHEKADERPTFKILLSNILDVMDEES
How it was run: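 TMD-8, RAMOS or 293T BTK C481S cells were treated 24 h with compounds from 10-fold DMSO stock series (10 to 0.0001 mM). BTK was measured by Western blot with GAPDH/β-actin references. Activity was binned by concentration giving 50% degradation: +++ (0.0001-0.01 μM), ++ (0.01-1 μM), + (1-10 μM), − (>10 μM).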

WT BTK protein = target: T2, WT BTK protein (Homo sapiens, UniProt Q06187); assay: BTK protein degradation assay (Western blotting), WT BTK; format: cell-based; conditions: concentration range accounting for 50% degradation of WT BTK protein, TMD-8 or RAMOS cells, 24 hours
T2 construct: measured for intracellular BTK protein levels by Western blotting; endogenous in cells; host or cells: TMD-8 or RAMOS cells
T2 sequence (Q06187 whole entry): as the sequence (Q06187 whole entry C481S) above, with S481C counted along it
How it was run: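 TMD-8 cells (1×10^6 cells/mL) treated 24 h with compound serial dilutions, then lysed in RIPA. Equal protein loads analysed by Western blot for BTK with GAPDH/β-actin as loading controls; activity binned by concentration giving 50% WT BTK degradation.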

Structure (SMILES) | DC50 (C481S BTK protein) [nM] | DC50 (WT BTK protein) [nM]
Cc1cccc(C)c1Nc1nn(C)c2nc(Nc3ccc4c(c3)CN(CC3CCN(C(=O)COc5ccc6c(c5)C(=O)N(C5CCC(=O)NC5=O)C6=O)CC3)CC4)ncc12 (stereo not drawn) [Compound 30, 5-(2-(4-((7-((3-((2,6-Dimethylphenyl)amino)-1-methyl-1H-pyrazolo[3,4-d]pyrimidin-6-yl)amino)-3,4-dihydroisoquinolin-2 (1H)-yl)methyl)piperidin-1-yl)-2-oxoethoxy)-2-(2,6-dioxopiperidin-3-yl)isoindoline-1,3-dione] | 10 to 1000 | 0.1 to 10
Cc1cccc(C)c1Nc1nn(C)c2nc(Nc3ccc4c(c3)CN(CC3CCN(C(=O)CN5CCN(c6ccc7c(c6)C(=O)N(C6CCC(=O)NC6=O)C7=O)CC5)CC3)CC4)ncc12 (stereo not drawn) [Compound 31, 5-(4-(2-(4-((7-((3-((2,6-Dimethylphenyl)amino)-1-methyl-1H-pyrazolo[3,4-d]pyrimidin-6-yl)amino)-3,4-dihydroisoquinolin-2 (1H)-yl)methyl)piperidin-1-yl)-2-oxoethyl)piperazin-1-yl)-2-(2,6-dioxopiperidin-3-yl)isoindoline-1,3-dione] | 10 to 1000 | 0.1 to 10
Cc1cccc(C)c1Nc1nn(C)c2nc(Nc3ccc4c(c3)CN(C(=O)[C@H]3CCCN3C(=O)CN3CCN(c5ccc6c(c5)C(=O)N(C5CCC(=O)NC5=O)C6=O)CC3)CC4)ncc12 (stereo partly drawn) [Compound 32, 5-(4-(2-((R)-2-(7-((3-((2,6-Dimethylphenyl)amino)-1-methyl-1H-pyrazolo[3,4-d]pyrimidin-6-yl)amino)-1,2,3,4-tetrahydroisoquinoline-2-carbonyl)pyrrolidin-1-yl)-2-oxoethyl)piperazin-1-yl)-2-(2,6-dioxopiperidin-3-yl)isoindoline-1,3-dione] | 1000 to 10000 | 10 to 1000
Cc1cccc(C)c1Nc1nn(C)c2nc(Nc3ccc4c(c3)CN(C(=O)[C@@H]3CCCN3C(=O)CNc3ccc5c(c3)C(=O)N(C3CCC(=O)NC3=O)C5=O)CC4)ncc12 (stereo partly drawn) [Compound 35, 5-((2-((S)-2-(7-((3-((2,6-Dimethylphenyl)amino)-1-methyl-1H-pyrazolo[3,4-d]pyrimidin-6-yl)amino)-1,2,3,4-tetrahydroisoquinoline-2-carbonyl)pyrrolidin-1-yl)-2-oxoethyl)amino)-2-(2,6-dioxopiperidin-3-yl)isoindoline-1,3-dione] | 10 to 1000 | 0.1 to 10
Cc1cccc(C)c1Nc1nn(C)c2nc(Nc3ccc4c(c3)CN(CC3CCN(C(=O)C5CCN(c6ccc7nnn(C8CCC(=O)NC8=O)c(=O)c7c6)CC5)CC3)CC4)ncc12 (stereo not drawn) [Compound 37, 3-(6-(4-(4-((7-((3-((2,6-Dimethylphenyl)amino)-1-methyl-1H-pyrazolo[3,4-d]pyrimidin-6-yl)amino)-3,4-dihydroisoquinolin-2 (1H)-yl)methyl)piperidine-1-carbonyl)piperidin-1-yl)-4-oxobenzo[d][1,2,3]triazin-3 (4H)-yl)piperidin-2,6-one] | 0.1 to 10 | 0.1 to 10
Cc1cccc(C)c1Nc1nn(C)c2nc(Nc3ccc4c(c3)CN(CC3CCN(Cc5ccc6nnn(C7CCC(=O)NC7=O)c(=O)c6c5)CC3)CC4)ncc12 (stereo not drawn) [Compound 46] | 10 to 1000 | 10 to 1000
Cc1cccc(C)c1Nc1nn(C)c2nc(Nc3ccc4c(c3)CN(CC3CCN(c5ccc6c(=O)n(C7CCC(=O)NC7=O)nnc6c5)CC3)CC4)ncc12 (stereo not drawn) [Compound 53, 3-(7-(4-((7-((3-((2,6-Dimethylphenyl)amino)-1-methyl-1H-pyrazolo[3,4-d]pyrimidin-6-yl)amino)-3,4-dihydroisoquinolin-2 (1H)-yl)methyl)piperidin-1-yl)-4-oxobenzo[d][1,2,3]triazin-3 (4H)-yl)piperidin-2,6-one] | 10 to 1000 | 0.1 to 10
Cc1cccc(C)c1Nc1nn(C)c2nc(Nc3ccc4c(c3)CN(C(=O)C3CCN(C(=O)C5CCN(c6ccc7c(c6)C(=O)N(C6CCC(=O)NC6=O)C7=O)CC5)CC3)CC4)ncc12 (stereo not drawn) [Compound 54, 5-(4-(4-(7-((3-((2,6-Dimethylphenyl)amino)-1-methyl-1H-pyrazolo[3,4-d]pyrimidin-6-yl)amino)-1,2,3,4-tetrahydroisoquinoline-2-carbonyl)piperidine-1-carbonyl)piperidin-1-yl)-2-(2,6-dioxopiperidin-3-yl)isoindoline-1,3-dione] | 10 to 1000 | 0.1 to 10
Cc1cccc(C)c1Nc1nn(C)c2nc(Nc3ccc4c(c3)CN(C(=O)C3CCN(C(=O)COc5ccc6nnn(C7CCC(=O)NC7=O)c(=O)c6c5)CC3)CC4)ncc12 (stereo not drawn) [Compound 55, 3-(6-(2-(4-(7-((3-((2,6-Dimethylphenyl)amino)-1-methyl-1H-pyrazolo[3,4-d]pyrimidin-6-yl)amino)-1,2,3,4-tetrahydroisoquinoline-2-carbonyl)piperidin-1-yl)-2-oxoethoxy)-4-oxobenzo[d][1,2,3]triazin-3 (4H)-yl)piperidin-2,6-one] | 10 to 1000 | 0.1 to 10
Cc1cccc(C)c1Nc1nn(C)c2nc(Nc3ccc4c(c3)CN(C(=O)C3CCN(c5ccc6c(c5)C(=O)N(C5CCC(=O)NC5=O)C6=O)CC3)CC4)ncc12 (stereo not drawn) [Compound 56, 5-(4-(7-((3-((2,6-Dimethylphenyl)amino)-1-methyl-1H-pyrazolo[3,4-d]pyrimidin-6-yl)amino)-1,2,3,4-tetrahydroisoquinoline-2-carbonyl)piperidin-1-yl)-2-(2,6-dioxopiperidin-3-yl)isoindoline-1,3-dione] | 10 to 1000 | 10 to 1000
Cc1cccc(C)c1Nc1nn(C)c2nc(Nc3ccc4c(c3)CN(CC3CCN(C(=O)CNc5ccc6c(=O)n(C7CCC(=O)NC7=O)nnc6c5)CC3)CC4)ncc12 (stereo not drawn) [Compound 63, 3-(7-((2-(4-((7-((3-((2,6-Dimethylphenyl)amino)-1-methyl-1H-pyrazolo[3,4-d]pyrimidin-6-yl)amino)-3,4-dihydroisoquinolin-2 (1H)-yl)methyl)piperidin-1-yl)-2-oxoethyl)amino)-4-oxobenzo[d][1,2,3]triazin-3 (4H)-yl)piperidin-2,6-one] | 10 to 1000 | 0.1 to 10

Further lines, results first:

DC50 (C481S BTK protein) [nM] | DC50 (WT BTK protein) [nM] | Structure (SMILES)
10 to 1000 | 0.1 to 10 | Cc1cccc(C)c1Nc1nn(C)c2nc(Nc3ccc4c(c3)CN(C(=O)C3CCN(C(=O)CNc5ccc6nnn(C7CCC(=O)NC7=O)c(=O)c6c5)CC3)CC4)ncc12 (stereo not drawn) [Compound 57]
10 to 1000 | 0.1 to 10 | Cc1cccc(C)c1Nc1nn(C)c2nc(Nc3ccc4c(c3)CN(C(=O)C3CCN(c5ccc6nnn(C7CCC(=O)NC7=O)c(=O)c6c5)CC3)CC4)ncc12 (stereo not drawn) [Compound 58, 3-(6-(4-(7-((3-((2,6-Dimethylphenyl)amino)-1-methyl-1H-pyrazolo[3,4-d]pyrimidin-6-yl)amino)-1,2,3,4-tetrahydroisoquinoline-2-carbonyl)piperidin-1-yl)-4-oxobenzo[d][1,2,3]triazin-3 (4H)-yl)piperidin-2,6-one]
1000 to 10000 | 0.1 to 10 | Cc1cccc(C)c1Nc1nn(C)c2nc(Nc3ccc4c(c3)CN(C(=O)C3CCN(c5cccc6nnn(C7CCC(=O)NC7=O)c(=O)c56)CC3)CC4)ncc12 (stereo not drawn) [Compound 59]
10 to 1000 | 0.1 to 10 | Cc1cccc(C)c1Nc1nn(C)c2nc(Nc3ccc4c(c3)CN(C(=O)C3CCN(C(=O)C5CCN(c6ccc7c(=O)n(C8CCC(=O)NC8=O)nnc7c6)CC5)CC3)CC4)ncc12 (stereo not drawn) [Compound 60, 3-(7-(4-(4-(7-((3-((2,6-Dimethylphenyl)amino)-1-methyl-1H-pyrazolo[3,4-d]pyrimidin-6-yl)amino)-1,2,3,4-tetrahydroisoquinoline-2-carbonyl)piperidine-1-carbonyl)piperidin-1-yl)-4-oxobenzo[d][1,2,3]triazin-3 (4H)-yl)piperidin-2,6-one]
0.1 to 10 | 0.1 to 10 | Cc1cccc(C)c1Nc1nn(C)c2nc(Nc3ccc4c(c3)CN(CC3CCN(C(=O)C5CCN(c6ccc7c(=O)n(C8CCC(=O)NC8=O)nnc7c6)CC5)CC3)CC4)ncc12 (stereo not drawn) [Compound 61, 3-(7-(4-(4-((7-((3-((2,6-Dimethylphenyl)amino)-1-methyl-1H-pyrazolo[3,4-d]pyrimidin-6-yl)amino)-3,4-dihydroisoquinolin-2 (1H)-yl)methyl)piperidine-1-carbonyl)piperidin-1-yl)-4-oxobenzo[d][1,2,3]triazin-3 (4H)-yl)piperidin-2,6-one]
10 to 1000 | 0.1 to 10 | Cc1cccc(C)c1Nc1nn(C)c2nc(Nc3ccc4c(c3)CN(CC3CCN(C(=O)C5CCN(c6cccc7nnn(C8CCC(=O)NC8=O)c(=O)c67)CC5)CC3)CC4)ncc12 (stereo not drawn) [Compound 62, 3-(5-(4-(4-((7-((3-((2,6-Dimethylphenyl)amino)-1-methyl-1H-pyrazolo[3,4-d]pyrimidin-6-yl)amino)-3,4-dihydroisoquinolin-2 (1H)-yl)methyl)piperidine-1-carbonyl)piperidin-1-yl)-4-oxobenzo[d][1,2,3]triazin-3 (4H)-yl)piperidin-2,6-one]
0.1 to 10 | 0.1 to 10 | Cc1cccc(Cl)c1Nc1nn(C)c2nc(Nc3ccc4c(c3)CN(CC3CCN(c5ccc6c(c5)C(=O)N(C5CCC(=O)NC5=O)C6=O)CC3)CC4)ncc12 (stereo not drawn) [Compound 85, 5-(4-((7-((3-((2-Chloro-6-methylphenyl)amino)-1-methyl-1H-pyrazolo[3,4-d]pyrimidin-6-yl)amino)-3,4-dihydroisoquinolin-2 (1H)-yl)methyl)piperidin-1-yl)-2-(2,6-dioxopiperidin-3-yl)isoindoline-1,3-dione]
